Results from US10457673B2, “Heteroatom containing deoxyuridine triphosphatase inhibitors” (University of Southern California, priority 2014, dated 2019).

Legend:
[1] = test system: colorectal (HCT116 and SW620) cell line models; assay: MTS growth inhibition assay; assay type: cell-based; settings: increasing concentrations of 5-FU between 0 and 100 μmol/L; both colorectal cancer cell lines evaluated
Procedure: The Cell Titer AQueous MTS assay (Promega) is carried out according to the manufacturers guidelines. […] The combination effect is determined by the combination index (CI) method utilizing Calcusyn software (Biosoft, Ferguson, Mo.). Fraction affected (FA) is calculated from the percent growth inhibition: FA=[…]. CI values <1, synergism; 1-1.2, additive and >1.2, antagonism.
MTS growth inhibition assays are performed to evaluate the effectiveness of the test compounds alone and in combination with the fluoropyrimidine thymidylate synthase (TS) inhibitor 5-fluorouracil (5-FU) at inhibiting the growth of colorectal (HCT116 and SW620) cell line models. […] Simultaneous treatment with increasing concentrations of 5-FU and a test compound at fixed concentrations of 25 μmol/L is determined.

[2] = test system: colorectal (HCT116), breast (MCF-7) and non-small cell lung (H1299, A549, H358 and H460) cell line models; assay: Colony forming assay; assay type: cell-based; settings: increasing concentrations of FUdR between 0.5 and 2.5 μmon; all cell lines evaluated
Procedure: Colony forming assay showing the ability of colon (SW620, HCT116), non-small cell lung (A549, H460, H1299 and H358) and breast (MCF7) cancer cells to survive and proliferate following transient 24 hour exposure to test compounds, FUdR and combinations are determined. Specifically, cells are seeded at densities between 50 and 100 cells/well in 24-well plates. […] After 24 hours, drug is removed, cells are rinsed and allowed to outgrow for 10-14 days. At the conclusion of the outgrowth, cells are fixed in 60% ice cold methanol and stained with 0.1% crystal violet, scanned and counted. Data is presented as percentage of untreated controls (mean±SD). Fraction affected and combination indexes are calculated according to the method of Chou and Talalay where <1 is indicative of a synergistic drug interaction.
In colorectal cancer cells, concentrations of test compounds ranging e.g., from 3.1 μmol/L to 50 μmol/L are combined with 0.5 μmol/L FUdR in HCT116 cells and 1 μmol/L FUdR in SW620 cells.

SMILES | growth inhibition [1] | colonies formed [2]
O=c1[nH]cc(F)c(=O)[nH]1 [Example 5-FU, 5-fluorouracil] | dose-dependent increases in growth inhibition | 
O=c1[nH]c(=O)n([C@H]2C[C@H](O)[C@@H](CO)O2)cc1F [FUdR, fluorodeoxyuridine] |  | dose-dependent decreases in colonies formed
